Measured values taken from patent US10774114B2, “Respiratory syncytial virus (RSV) replication inhibitors” (priority 2014, dated 2020).
Where a SMILES comes first, the peptide text is derived from it. Bridges are numbered along the chain shown (N, C = ends). [ ]: non-standard residue; d: D form. R8 = C=CCCCCCC[C@@](C)(N)C(=O)O; R5 = C=CCCC[C@@](C)(N)C(=O)O; S5 = C=CCCC[C@](C)(N)C(=O)O

What was measured:
[1] = system: RSV-mCherry virus; settings: read-out: EC50, inhibition of viral replication; Hep2 cells infected with RSV-mCherry, peptides added post-infection, fluorescence read at 48 h
Procedure: HEp-2 cells were seeded in 96 well plates and infected with 500 PFU of rHRSV-Cherry virus. Following viral infection, cells were incubated in the presence of serial dilutions of stapled peptides. The red fluorescence was read at 48 h post infection by automatic counting.
rHRSV-mCherry Inhibition Assay.
HEp-2 cells were seeded at 5×10^4 cells per well in 96 well plates the day before and infected for 2 hours with 500 PFU of RSV-mCherry. The medium was then changed against MEM without phenol red medium containing dilutions of peptides. Each point of peptide dilution was made in duplicate. Plates were incubated 48 h at 37° C. and mCherry fluorescence measurement was performed using a spectrofluorometer (Tecan infinite M200PRO) with excitation and emission wavelengths of 580 and 620 nm, respectively (expressed in relative fluorescence units RFU). Non-infected HEp-2 cells were used as standards for fluorescence background levels.
Next the potential activity of stapled peptides was tested on infected cells. Hep2 cells were infected with a RSV-mCherry virus engineered by reverse genetics (Rameix-Welti et al, Nat Comm., 2014), and increasing concentrations of stapled peptides were added post-infection to study their effect on viral replication.

[2] = in vitro; assay type: cell-based; settings: human
Procedure: (§1) HEp-2 (ATCC number CCL-23) and BHK-21 (clone BSRT7/5) cells were maintained in Eagle's miminum essential medium (EMEM) and Dulbecco's modified Eagle's medium (DMEM), respectively, supplemented with 10% FCS, 2 mM L-glutamine, and penicillin-streptomycin solution. The cells were grown in an incubator at 37° C. in 5% CO2. Cytotoxicity assays were done with the CellTiter-Glo Luminescent cell viability assay (Promega). Cells were transfected using Lipofectamine 2000 (Invitrogen, Cergy-Pontoise, France) as described by the manufacturer.

[3] = system: rHRSV-Luc; experiment: In vivo mice luciferase assay (rHRSV-Luc-infected mice); settings: intranasal, 0.6 mg/ml, 50 μL in PBS, repeated at days 2 and 4; 6x10^4 PFU rHRSV-Luc
Source text: In Vivo Mice Luciferase Assay.
Female BALB/c mice were purchased from the Centre d'ElevageR. Janvier (Le Genest Saint-Isle, France) and were used around 8 weeks of age. Mice strains were bred in a pathogen-free animal facility. Mice were fed normal mouse chow and water ad libitum and were raised and housed under standard conditions with air filtration. For infection experiments, mice were housed in cages inside stainless steel isolation cabinets that were ventilated under negative pressure with high-efficiency particulate air-filtered air. Mice were anesthetized by a mixture of ketamine and xylazine (1 and 0.2 mg per mouse, respectively) and infected IN with 50 μl of PBS containing 6×10^4 PFU of rHRSV-Luc. Body temperature and body weight were monitored at days 3-10. For in vivo imaging, mice were anesthetized. Alternatively, mice were killed at different time points, and lungs were then collected. For each time point, experiments were done in quadruplicate. […] Oral treatments were administered 1 h prior to RSV inoculation and then once on day 2 and on day 4. This experiment was repeated once.

[4] = system: Hep2 cells; experiment: in vitro; assay type: cell-based; settings: at a concentration of 100 μM
Procedure: as §1

[5] = Far-UV CD spectroscopy (alpha-helical content); assay type: physicochemical; settings: 10 mM phosphate buffer, pH 7.5
Procedure: FIGS. 7A-7C: Far-UV CD spectra of stapled peptides in 10 mM phosphate buffer, pH 7.5. […] HEVS 115-129.
CD experiments were performed on a Jasco-810 or on a Chirascan spectropolarimeter in a thermostated cell holder at 20° C. The samples were prepared in 10 mM phosphate buffer, pH 7.5, at a peptide concentration of 25 μM for HEVS 73-79 or […] for the other peptides. The far-UV spectra were recorded at 25° C. by step scan from 190 nm to 250 nm with a scan rate of 100 nm per min using a bandwidth of 1 nm and an integration time of 1 s. Each spectrum was the average of 5 scans. The spectra were substracted from buffer baseline and smoothed using the FFT filter (Jasco Software, Tokyo, Japan). The data were converted to per residue molar ellipticity units [Θ] (deg.cm^2.dmol^−l.residue^−1). The percentage of helicity was calculated as follows:
[formula] whereby CD222=molar ellipticity [e] at 222 nm in [mdeg], N=number of amino acids in the peptide and C=peptide molar concentration [mol/1].

Molecule | EC50 [1] | other results
CC[C@H](C)[C@H](NC(=O)[C@]1(C)CCCC=CCCCCCC[C@@](C)(NC(=O)[C@H](CC(N)=O)NC(=O)[C@H](CC(N)=O)NC(=O)[C@H](C)NC(=O)[C@H](CC(=O)O)NC(=O)[C@H](CCC(=O)O)NC(C)=O)C(=O)N[C@@H](C)C(=O)N[C@@H]([C@@H](C)O)C(=O)N[C@@H](CCCCN)C(=O)N[C@@H](Cc2ccccc2)C(=O)N[C@@H](CC(C)C)C(=O)N[C@@H](CCC(=O)O)C(=O)N1)C(=O)N[C@@H](CCCCN)C(=O)NCC(=O)N[C@@H](CCCCN)C(=O)N[C@@H](Cc1ccccc1)C(=O)N[C@@H](C)C(=O)N[C@@H](CO)C(N)=O [HEVS 77, EDANNR8ATKFLES5IKGKFAS] (Ac-EDANN[R8]ATKFLE[S5]IKGKFAS-NH2; staple 6-13) | 60 µM | –
CC[C@H](C)[C@@H]1NC(=O)[C@@](C)(NC(=O)[C@H](CCC(=O)O)NC(=O)[C@H](CC(C)C)NC(=O)[C@H](Cc2ccccc2)NC(=O)[C@H](CCCCN)NC(=O)[C@@H](NC(=O)[C@H](C)NC(=O)[C@H](CCCCN)NC(=O)[C@H](CC(N)=O)NC(=O)[C@H](CC(N)=O)NC(=O)[C@H](C)NC(=O)[C@H](CC(=O)O)NC(=O)[C@H](CCC(=O)O)NC(C)=O)[C@@H](C)O)CCCC=CCCC[C@@](C)(C(=O)N[C@@H](Cc2ccccc2)C(=O)N[C@@H](C)C(=O)N[C@@H](CO)C(N)=O)NC(=O)CNC(=O)[C@H](CCCCN)NC1=O [HEVS 78] (Ac-EDANNKATKFLE[S5]IKG[S5]FAS-NH2; staple 13-17) | 15 µM | CC50 [2]: ~40 µM
CC[C@H](C)[C@@H]1NC(=O)[C@](C)(NC(=O)[C@H](CCC(=O)O)NC(=O)[C@H](CC(C)C)NC(=O)[C@H](Cc2ccccc2)NC(=O)[C@H](CCCCN)NC(=O)[C@@H](NC(=O)[C@H](C)NC(=O)[C@H](CCCCN)NC(=O)[C@H](CC(N)=O)NC(=O)[C@H](CC(N)=O)NC(=O)[C@H](C)NC(=O)[C@H](CC(=O)O)NC(=O)[C@H](CCC(=O)O)NC(C)=O)[C@@H](C)O)CCCCCCC=CCCC[C@@](C)(C(N)=O)NC(=O)[C@H](C)NC(=O)[C@H](Cc2ccccc2)NC(=O)[C@H](CCCCN)NC(=O)CNC(=O)[C@H](CCCCN)NC1=O [HEVS 79] (Ac-EDANNKATKFLE[R8]IKGKFA[S5]-NH2; staple 13-20) | ~80 µM | –
CC[C@H](C)[C@H](NC(=O)[C@]1(C)CCCC=CCCCCCC[C@@](C)(NC(=O)[C@H](CC(N)=O)NC(=O)[C@H](CC(N)=O)NC(=O)[C@H](C)NC(=O)[C@H](CC(=O)O)NC(=O)[C@H](CCC(=O)O)NC(=O)CNC(=O)[C@H](Cc2c[nH]cn2)NC(=O)[C@H](Cc2ccccc2)NC(=O)[C@H](CCC(=O)O)NC(C)=O)C(=O)N[C@@H](C)C(=O)N[C@@H]([C@@H](C)O)C(=O)N[C@@H](CCCCN)C(=O)N[C@@H](Cc2ccccc2)C(=O)N[C@@H](CC(C)C)C(=O)N[C@@H](CCC(=O)O)C(=O)N1)C(=O)N[C@@H](CCCCN)C(=O)NCC(=O)N[C@@H](CCCCN)C(=O)N[C@@H](Cc1ccccc1)C(=O)N[C@@H](C)C(=O)N[C@@H](CO)C(N)=O [HEVS 124] | 11 µM | luciferase activity (bioluminescence) in treated mice [3]: significant reduction
CC[C@H](C)[C@H](NC(=O)[C@]1(C)CCCC=CCCCCCC[C@@](C)(NC(=O)[C@H](CC(N)=O)NC(=O)[C@H](CC(N)=O)NC(=O)[C@H](C)NC(=O)[C@]2(C)CCCC=CCCC[C@@](C)(NC(=O)[C@H](Cc3ccccc3)NC(=O)[C@H](CCC(=O)O)NC(C)=O)C(=O)NCC(=O)N[C@@H](CCC(=O)O)C(=O)N2)C(=O)N[C@@H](C)C(=O)N[C@@H]([C@@H](C)O)C(=O)N[C@@H](CCCCN)C(=O)N[C@@H](Cc2ccccc2)C(=O)N[C@@H](CC(C)C)C(=O)N[C@@H](CCC(=O)O)C(=O)N1)C(=O)N[C@@H](CCCCN)C(=O)NCC(=O)N[C@@H](CCCCN)C(=O)N[C@@H](Cc1ccccc1)C(=O)N[C@@H](C)C(=O)N[C@@H](CO)C(N)=O [HEVS 126, EFR5GES5ANNR8ATKFLES5IKGKFAS] (Ac-EF[R5]GE[S5]ANN[R8]ATKFLE[S5]IKGKFAS-NH2; staple 3-6, 10-17) | 3.5 µM | cytotoxicity [4]: cytotoxic
EDANNKATKFLESIKGKFAS [HEVS 73] | – | folding state by far UV CD [5]: largely unfolded
